From US20110178062A1, “INDOLE AND BENZOTHIOPHENE COMPOUNDS AS MODULATORS OF THE HISTAMINE H3 RECEPTOR” (priority 2007, published 2011) come the findings set out here.

This assay deals with T1, cloned human H3 receptors, stably expressed in SK-N-MC cells (Homo sapiens, UniProt Q9Y5N1).
T1 construct: expressed in transfected cells; host or cells: SK-N-MC cells
Nature of the assay: H3 Receptor Binding (Human). The procedure:
Binding of compounds to the cloned human H3 receptors, stably expressed in SK-N-MC cells, was performed as described by Barbier, A. J. et al. (Br. J. Pharmacol. 2004, 143(5), 649-661). Data for compounds tested in this assay are presented in Table 1 as an average of the results obtained.

The mark [1] stands for this setting: average of the results obtained.

Bounds are passed on as bounds.

T1 sequence (Q9Y5N1 whole entry): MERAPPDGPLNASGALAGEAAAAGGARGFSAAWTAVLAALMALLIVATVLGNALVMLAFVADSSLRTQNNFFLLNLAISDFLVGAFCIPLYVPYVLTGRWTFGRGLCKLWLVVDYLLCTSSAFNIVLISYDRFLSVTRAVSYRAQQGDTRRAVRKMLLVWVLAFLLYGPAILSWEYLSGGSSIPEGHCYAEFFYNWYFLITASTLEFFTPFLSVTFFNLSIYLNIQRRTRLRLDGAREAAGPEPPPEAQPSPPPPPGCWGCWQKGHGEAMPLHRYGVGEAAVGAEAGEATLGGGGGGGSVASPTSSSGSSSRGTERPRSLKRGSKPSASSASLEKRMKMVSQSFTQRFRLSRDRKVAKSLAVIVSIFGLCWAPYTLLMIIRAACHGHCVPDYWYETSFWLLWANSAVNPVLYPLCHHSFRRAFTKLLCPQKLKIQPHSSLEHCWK

As a reminder, the Ki is the equilibrium dissociation constant of an inhibitor or competing ligand from its target. `O=C(c1ccc2scc(C(=O)N3CCCCC3)c2c1)N1CCN(C2CCC2)CC1` [Example 105, [5-(4-Cyclobutyl-piperazine-1-carbonyl)-benzo[b]thiophen-3-yl]-piperidin-1-yl-methanone]: under setting [1], the Ki stood at 0.215 µM.
On the same count and under the same terms, in the case of `CC(C)N1CCN(C(=O)c2ccc3c(CN4CCN(CCc5ccccc5)CC4)c[nH]c3c2)CC1` [Example 56, (4-Isopropyl-piperazin-1-yl)-[3-(4-phenethyl-piperazin-1-ylmethyl)-1H-indol-6-yl]-methanone] it was 0.002 µM.
Turning to `O=C(c1ccc2c(CN3CCOCC3)c[nH]c2c1)N1CCCN(C2CCC2)CC1` [Example 9, (4-Cyclobutyl-[1,4]diazepan-1-yl)-(3-morpholin-4-ylmethyl-1H-indol-6-yl)-methanone], the affinity under setting [1] corresponds to a Ki of 0.001 µM.
Still for that read-out and setting: in the case of `O=C(c1ccc2c(CN3CCC(N4CCCCC4)CC3)c[nH]c2c1)N1CCSCC1` [Example 67, (3-[1,4′]Bipiperidinyl-1′-ylmethyl-1H-indol-6-yl)-thiomorpholin-4-yl-methanone] it was 0.171 µM; in that of `O=C(c1ccc2c(CN3CCN(C4CCCC4)CC3)c[nH]c2c1)N1CCC(c2ccccc2)CC1` [Example 86, [3-(4-Cyclopentyl-piperazin-ylmethyl)-1H-indol-6-yl]-(4-phenyl-piperidin-1-yl)-methanone], 0.027 µM; in that of `CC(=O)N1CCN(Cc2c[nH]c3cc(C(=O)N4CCN(C(C)C)CC4)ccc23)CC1` [Example 48, 1-{4-[6-(4-Isopropyl-piperazine-1-carbonyl)-1H-indol-3-ylmethyl]-piperazin-1-yl}-ethanone], 0.005 µM.
Turning to `O=C(c1ccc2[nH]cc(CN3CCN(C4CCC4)CC3)c2c1)N1CCCCC1` [Example 38, [3-(4-Cyclobutyl-piperazin-1-ylmethyl)-1H-indol-5-yl]-piperidin-1-yl-methanone], under setting [1], the affinity corresponds to a Ki of 0.427 µM.
`O=C(c1cccc2c(CN3CCN(C4CCC4)CC3)c[nH]c12)N1CCCCC1` [Example 36, [3-(4-Cyclobutyl-piperazin-1-ylmethyl)-1H-indol-7-yl]-piperidin-1-yl-methanone]: under setting [1], the Ki is 0.081 µM.
Consider `CC(C)N1CCCN(Cc2c[nH]c3cc(C(=O)N4CCCCCC4)ccc23)CC1` [Example 95, Azepan-1-yl-[3-(4-isopropyl-[1,4]diazepan-1-ylmethyl)-1H-indol-6-yl]-methanone], for which the Ki under setting [1] stood at 0.042 µM.
`CC(C)N1CCN(C(=O)c2ccc3c(CN4CCN(c5nccs5)CC4)c[nH]c3c2)CC1` [Example 49, (4-Isopropyl-piperazin-1-yl)-[3-(4-thiazol-2-yl-piperazin-1-ylmethyl)-1H-indol-6-yl]-methanone] had a Ki under setting [1] of 0.007 µM.
`O=C(c1cccc2[nH]cc(CN3CCCCC3)c12)N1CCN(C2CCC2)CC1` [Example 42, (4-Cyclobutyl-piperazin-1-yl)-(3-piperidin-1-ylmethyl-1H-indol-4-yl)-methanone]: the Ki under setting [1] stood at 1.5 µM.
Consider `CC(C)N1CCCN(Cc2c[nH]c3cc(C(=O)N4CCCCC4)ccc23)CC1` [Example 30, [3-(4-Isopropyl-[1,4]diazepan-1-ylmethyl)-1H-indol-6-yl]-piperidin-1-yl-methanone], for which the Ki under setting [1] was 0.026 µM.
On to `O=C(c1ccc2c(CN3CCCCC3)c[nH]c2c1)N1CCc2nc[nH]c2C1` [Example 18, (3-Piperidin-1-ylmethyl-1H-indol-6-yl)-(3,4,6,7-tetrahydro-imidazo[4,5-c]pyridin-5-yl)-methanone], for which the Ki under setting [1] was 5.01 µM. This Ki lies about 190-fold higher than the previous one.
`CC(C)N1CCN(C(=O)c2ccc3c(CN4CCCOCC4)c[nH]c3c2)CC1` [Example 59, (4-Isopropyl-piperazin-1-yl)-(3-[1,4]-oxazepan-4-ylmethyl-1H-indol-6-yl)-methanone] displayed a Ki under setting [1] of 0.001 µM. Compared with the last compound, the Ki is about 5000-fold lower.
In turn, `CC(C)N1CCN(C(=O)c2ccc3c(CN4CCN(S(C)(=O)=O)CC4)c[nH]c3c2)CC1` [Example 54, (4-Isopropyl-piperazin-1-yl)-[3-(4-methanesulfonyl-piperazin-1-ylmethyl)-1H-indol-6-yl]-methanone] gave a Ki under setting [1] of 0.012 µM.
`CC(C)N1CCN(C(=O)c2ccc3c(CN4CCN(c5ccccn5)CC4)c[nH]c3c2)CC1` [Example 46, (4-Isopropyl-piperazin-1-yl)-[3-(4-pyridin-2-yl-piperazin-1-ylmethyl)-1H-indol-6-yl]-methanone]: under setting [1], affinity was put at a Ki of 0.003 µM.
On to `CC(C)N1CCN(Cc2c[nH]c3cc(C(=O)N4CCOCC4)ccc23)CC1` [Example 76, [3-(4-Isopropyl-piperazin-1-ylmethyl)-1H-indol-6-yl]-morpholin-4-yl-methanone], for which, under setting [1], the affinity, expressed as Ki, was 0.054 µM.
Consider `Cc1cccnc1CNC(=O)c1ccc2c(CN3CCCCC3)c[nH]c2c1` [Example 17, 3-Piperidin-1-ylmethyl-1H-indole-6-carboxylic acid (3-methyl-pyridin-2-ylmethyl)-amide], for which the affinity under setting [1], expressed as Ki, was 0.114 µM.
With `CC(C)N1CCN(C(=O)c2ccc3c(CN4CCC(Cc5ccccc5)CC4)c[nH]c3c2)CC1` [Example 55, [3-(4-Benzyl-piperidin-1-ylmethyl)-1H-indol-6-yl]-(4-isopropyl-piperazin-1-yl)-methanone], the Ki under setting [1] turned out to be 0.001 µM.
Under setting [1], `O=C(c1ccc2c(CN3CCCN(C4CCC4)CC3)c[nH]c2c1)N1CCC(CO)CC1` [Example 83, [3-(4-Cyclobutyl-[1,4]diazepan-1-ylmethyl)-1H-indol-6-yl]-(4-hydroxymethyl-piperidin-1-yl)-methanone] gave a Ki of 0.027 µM.
Compound `CC(C)N1CCN(C(=O)c2ccc3c(CN4CCN(C(=O)N5CCOCC5)CC4)c[nH]c3c2)CC1` [Example 61, (4-Isopropyl-piperazin-1-yl)-{3-[4-(morpholine-4-carbonyl)-piperazin-1-ylmethyl]-1H-indol-6-yl}-methanone] showed a Ki under setting [1] of 0.003 µM. This Ki lies about 9-fold lower than the previous one.
The same measure, in the same setting: then `O=C(c1cccc2[nH]cc(CN3CCN(C4CCC4)CC3)c12)N1CCCCC1` [Example 37, [3-(4-Cyclobutyl-piperazin-1-ylmethyl)-1H-indol-4-yl]-piperidin-1-yl-methanone], with 0.318 µM.
On the same count and under the same terms, then `O=C(c1ccc2[nH]cc(CN3CCCCC3)c2c1)N1CCN(C2CCC2)CC1` [Example 33, (4-Cyclobutyl-piperazin-1-yl)-(3-piperidin-1-ylmethyl-1H-indol-5-yl)-methanone], with 0.013 µM.
`O=C(c1ccc2c(CN3CCCCC3)c[nH]c2c1)N1CCC(N2CCCC2=O)CC1` [Example 19, 1-[1-(3-Piperidin-1-ylmethyl-1H-indole-6-carbonyl)-piperidin-4-yl]-pyrrolidin-2-one]: the affinity under setting [1], expressed as Ki, was 0.26 µM.
Regarding `CC(C)N1CCN(C(=O)c2ccc3[nH]cc(CN4CCCCC4)c3c2)CC1` [Example 32, (4-Isopropyl-piperazin-1-yl)-(3-piperidin-1-ylmethyl-1H-indol-5-yl)-methanone], the affinity under setting [1], expressed as Ki, was 0.034 µM.
Same read-out and setting: in the case of `O=C(NCc1ccncc1)c1ccc2c(CN3CCOCC3)c[nH]c2c1` [Example 11, 3-Morpholin-4-ylmethyl-1H-indole-6-carboxylic acid (pyridin-4-ylmethyl)-amide] it was 0.228 µM; in that of `CC(C)N1CCCN(Cc2c[nH]c3cc(C(=O)N4CCSCC4)ccc23)CC1` [Example 72, [3-(4-Isopropyl-[1,4]diazepan-1-ylmethyl)-1H-indol-6-yl]-thiomorpholin-4-yl-methanone], 0.036 µM.
Compound `CC(C)N1CCN(C(=O)c2ccc3[nH]ccc3c2)CC1` [(1H-Indol-5-yl)-(4-isopropyl-piperazin-1-yl)-methanone] came in with a Ki (stated in text for the intermediate of Example 35, Step A) of 0.097 µM.
For the compound `O=C(c1ccc2c(CN3CCC(N4CCCCC4)CC3)c[nH]c2c1)N1CCCCCC1` [Example 90, Azepan-1-yl-(3-[1,4′]bipiperidinyl-1′-ylmethyl-1H-indol-6-yl)-methanone], affinity under setting [1] was put at a Ki of 0.021 µM.
For the compound `O=C(c1ccc2c(CN3CCN(C4CC4)CC3)c[nH]c2c1)N1CCCCC1` [Example 28, [3-(4-Cyclopropyl-piperazin-1-ylmethyl)-1H-indol-6-yl]-piperidin-1-yl-methanone], affinity under setting [1] was put at a Ki of 0.177 µM.
Same read-out and setting: then `CC(=O)N1CCCN(Cc2c[nH]c3cc(C(=O)N4CCN(C(C)C)CC4)ccc23)CC1` [Example 50, 1-{4-[6-(4-Isopropyl-piperazine-1-carbonyl)-1H-indol-3-ylmethyl]-[1,4]diazepam-1-yl}-ethanone], with 0.003 µM; and `CN(C)C1CCN(Cc2c[nH]c3cc(C(=O)N4CCSCC4)ccc23)C1` (stereo not shown) [Example 69, [3-(3-Dimethylamino-pyrrolidin-1-ylmethyl)-1H-indol-6-yl]-thiomorpholin-4-yl-methanone], with 0.019 µM; and `CC(C)N1CCN(C(=O)c2ccc3c(CN4CCCCC4)c[nH]c3c2)CC1` [Example 24, (4-Isopropyl-piperazin-1-yl)-(3-piperidin-1-ylmethyl-1H-indol-6-yl)-methanone], with 0.002 µM.
On to `CC(C)N1CCCN(Cc2c[nH]c3cc(C(=O)N4CCC(c5ccccc5)CC4)ccc23)CC1` [Example 97, [3-(4-Isopropyl-[1,4]diazepan-1-ylmethyl)-1H-indol-6-yl]-(4-phenyl-piperidin-1-yl)-methanone], for which the Ki under setting [1] stood at 0.059 µM.
As to `CC(C)N1CCN(C(=O)c2ccc3c(CN4CCC(O)(c5ccccc5)CC4)c[nH]c3c2)CC1` [Example 65, [3-(4-Hydroxy-4-phenyl-piperidin-1-ylmethyl)-1H-indol-6-yl]-(4-isopropyl-piperazin-1-yl)-methanone], affinity under setting [1] was put at a Ki of 0.001 µM. Against the preceding compound, the Ki is about 59-fold lower.
As for `O=C(c1ccc2c(CN3CCCN(C4CCC4)CC3)c[nH]c2c1)N1CCC(c2ccccc2)CC1` [Example 89, [3-(4-Cyclobutyl-[1,4]diazepan-1-ylmethyl)-1H-indol-6-yl]-(4-phenyl-piperidin-1-yl)-methanone], affinity under setting [1] was put at a Ki of 0.031 µM.
On the same count and under the same terms, then `CC(C)N1CCN(C(=O)c2cccc3[nH]cc(CN4CCOCC4)c23)CC1` [Example 39, (4-Isopropyl-piperazin-1-yl)-(3-morpholin-4-ylmethyl-1H-indol-4-yl)-methanone], with over 10 µM.
